Results on one molecule are retold here after patent publication US12123010B2, “Plants having increased tolerance to herbicides” (BASF SE, priority 2017, dated 2024).

Assay [1] has as its system Variant PPO Enzyme L397Q, F420M (Amaranthus PPO2). It is filed as biochemical. The settings on record: variant L397Q, F420M vs wild type.
Assay [2] deals with Variant PPO Enzyme L397Q, F420V (Amaranthus PPO2). It is filed as biochemical. The settings on record: variant L397Q, F420V vs wild type.

Regarding `CCOC(=O)COc1ncccc1Oc1nc(-n2c(=O)cc(C(F)(F)F)n(C)c2=O)c(F)cc1Cl` [Uracilpyridine 2, ethyl 2-[[3-[[3-chloro-5-fluoro-6-[3-methyl-2,6-dioxo-4-(trifluoromethyl)pyrimidin-1-yl]-2-pyridyl]oxy]-2-pyridyl]oxy]acetate], the “Tolerance Factor (R/S)” value is 4843 in assay [1] and 13678 in assay [2].
